Assay results taken from PMC12040169 (PLOS Biology, 2025).

assay: in vitro; settings: human, hela cells, % viability

Q: For `CC(=O)Nc1cccc(-n2cc(-c3cccc(C(F)(F)F)c3)nn2)c1` [CBK112938], which viability at 28.5 h, 10 µM is on record?
A: 91.2%

Q: Which viability at 28.5 h, 10 µM does the source give for `O=C(O)c1cccc(-n2cc(-c3cccc(C(F)(F)F)c3)nn2)c1` [CBK112949] here?
A: 114%

Q: With `CSc1ccc(-n2cc(-c3ccc(F)cc3F)nn2)cc1` [CBK112979] as the molecule, how does the viability at 28.5 h, 10 µM read?
A: 99.3%

Q: For `OCc1ccc(-n2cc(-c3ccc(F)cc3F)nn2)cc1` [CBK112982], which viability at 28.5 h, 10 µM is on record?
A: 89.2%

Q: Which viability at 28.5 h, 10 µM does the source give for `Fc1ccc(-c2cn(-c3cncnc3)nn2)c(F)c1` [CBK112989] here?
A: 96.4%

Q: Which viability at 28.5 h, 10 µM does the source give for `Cc1ccc(Cl)cc1-n1cc(-c2ccc(F)cc2F)nn1` [CBK112995] here?
A: 89.2%

Q: For `O=C(O)c1cccc(-n2cc(-c3ccc(F)cc3F)nn2)c1` [CBK112998], which viability at 28.5 h, 10 µM is on record?
A: 95.9%

Q: Which viability at 28.5 h, 10 µM does the source give for `COc1ccc(-c2cn(-c3cc(Cl)ccc3C)nn2)cc1` [CBK113023] here?
A: 58.6%

Q: With `COc1ccc(-c2cn(-c3ccc4c(c3)CCO4)nn2)cc1` [CBK113027] as the molecule, how does the viability at 28.5 h, 10 µM read?
A: 88.5%

Q: With `CC(C)(C)c1ccc(-n2cc(-c3ccc(Cl)cc3)nn2)cc1` [CBK113031] as the molecule, how does the viability at 28.5 h, 10 µM read?
A: 102%

Q: With `FC(F)(F)c1cccc(-n2cc(-c3cccnc3)nn2)c1` [CBK113053] as the molecule, how does the viability at 28.5 h, 10 µM read?
A: 86%

Q: Which viability at 28.5 h, 10 µM does the source give for `CN(C)Cc1ccccc1-n1cc(-c2cccnc2)nn1` [CBK113064] here?
A: 92.5%

Q: With `FC(F)(F)Oc1ccc(-n2cc(-c3ccsc3)nn2)cc1` [CBK113096] as the molecule, how does the viability at 28.5 h, 10 µM read?
A: 92.7%

Q: For `O=S1(=O)CCN(Cc2cn(-c3ccccc3)nn2)CC1` [CBK113103], which viability at 28.5 h, 10 µM is on record?
A: 88.9%

Q: Which viability at 28.5 h, 10 µM does the source give for `O=S1(=O)CCN(Cc2cn(-c3ccc(-c4ccccc4)cc3)nn2)CC1` [CBK113105] here?
A: 95.4%

Q: Which viability at 28.5 h, 10 µM does the source give for `COc1ccc(-n2cc(-c3ccncc3)nn2)cc1OC` [CBK113106] here?
A: 109%

Q: For `COc1ccc(-n2cc(-c3ccc(F)cc3)nn2)cc1` [CBK113111], which viability at 28.5 h, 10 µM is on record?
A: 102%

Q: With `CC(C)(C)c1ccc(-n2cc(-c3ccc(F)cc3)nn2)cc1` [CBK113112] as the molecule, how does the viability at 28.5 h, 10 µM read?
A: 103%

Q: Which viability at 28.5 h, 10 µM does the source give for `Fc1ccc(-c2cn(-c3ccc4c(c3)CCO4)nn2)cc1` [CBK113132] here?
A: 97%

Q: With `COc1ccc(-n2cc(-c3ccccn3)nn2)cc1OC` [CBK113133] as the molecule, how does the viability at 28.5 h, 10 µM read?
A: 103%

Q: Which viability at 28.5 h, 10 µM does the source give for `CCc1ccc(-n2cc(-c3ccccn3)nn2)cc1` [CBK113137] here?
A: 106%

Q: For `Fc1cc(Br)ccc1-c1cn(-c2ccc3[nH]ccc3c2)nn1` [CBK113146], which viability at 28.5 h, 10 µM is on record?
A: 91.2%

Q: Which viability at 28.5 h, 10 µM does the source give for `Fc1cc(Br)ccc1-c1cn(-c2ccccc2)nn1` [CBK113148] here?
A: 80.7%

Q: With `CCOC(=O)c1cccc(-n2cc(-c3ccc(Br)cc3F)nn2)c1` [CBK113153] as the molecule, how does the viability at 28.5 h, 10 µM read?
A: 92.3%

Q: With `Cc1cc(C)n(S(=O)(=O)c2cc(C(=O)O)c(Cl)cc2Cl)n1` [CBK113170] as the molecule, how does the viability at 28.5 h, 10 µM read?
A: 86.3%

Q: With `NS(=O)(=O)c1ccccc1Cl` [CBK113172] as the molecule, how does the viability at 28.5 h, 10 µM read?
A: 98.1%

Q: With `CC(C)(C)c1ccc(C(=O)Nc2nsc(-c3ccc(Cl)cc3)n2)cc1` [CBK113176] as the molecule, how does the viability at 28.5 h, 10 µM read?
A: 89.6%

Q: With `NS(=O)(=O)c1cc(C(=O)O)ccc1F` [CBK113180] as the molecule, how does the viability at 28.5 h, 10 µM read?
A: 81.1%

Q: For `COC(=O)c1cc(S(N)(=O)=O)c(C)o1` [CBK113185], which viability at 28.5 h, 10 µM is on record?
A: 104%

Q: With `O=C1c2ccccc2CN1c1ccccc1` [CBK113189] as the molecule, how does the viability at 28.5 h, 10 µM read?
A: 95.9%

Q: With `O=C1c2ccccc2CN1c1cccc2ccccc12` [CBK113190] as the molecule, how does the viability at 28.5 h, 10 µM read?
A: 85.3%

Q: With `CCOC(=O)Cn1nc(C)c(Cc2c(Cl)cccc2Cl)c1CC` [CBK113223] as the molecule, how does the viability at 28.5 h, 10 µM read?
A: 85%

Q: Which viability at 28.5 h, 10 µM does the source give for `O=C(O)c1cc(S(=O)(=O)Nc2ccc(O)cc2)c(Cl)cc1Cl` [CBK113231] here?
A: 86.8%

Q: With `O=C(Nc1nsc(-c2ccccc2)n1)c1ccc(F)cc1` [CBK113232] as the molecule, how does the viability at 28.5 h, 10 µM read?
A: 87.8%

Q: With `O=C1c2ccccc2CN1c1ccc(OC(F)(F)F)cc1` [CBK113237] as the molecule, how does the viability at 28.5 h, 10 µM read?
A: 91.3%

Q: For `Cc1ccc(N2C(=O)c3ccccc3C2Nc2ccccc2)nc1` (stereo not drawn) [CBK113238], which viability at 28.5 h, 10 µM is on record?
A: 101%

Q: For `Cc1ccc(N2C(=O)c3ccccc3C2=O)cc1` [CBK113243], which viability at 28.5 h, 10 µM is on record?
A: 95.7%

Q: For `CN1CCN(CCCCC2(C)SC(NC3CCCCCC3)=NC2=O)CC1` (stereo not drawn) [CBK113259], which viability at 28.5 h, 10 µM is on record?
A: 93.3%

Q: For `Cc1c(Cc2c(Cl)cccc2Cl)c(=O)n(C)n1C` [CBK113274], which viability at 28.5 h, 10 µM is on record?
A: 97.2%
